# According to PubChem BioAssay (NCI):
#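 Test compounds were applied to cells in 96-well plates for 48 hours at 5 doses. GI50 is the concentration that inhibits growth by half. TGI is the concentration that stops growth completely.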
# What was measured:
# Assay in all cases: NCI anticancer screen, dose series, 48 h
# [1] = test system: SK-MEL-28 melanoma
# [2] = test system: U251 CNS
# [3] = test system: MCF7 breast
# [4] = test system: MDA-MB-435
# [5] = test system: HS 578T breast
# [6] = test system: HL-60(TB) leukemia
# [7] = test system: NCI-H226 lung
# [8] = test system: NCI/ADR-RES ovarian
# [9] = test system: LOX IMVI melanoma
# [10] = test system: SK-MEL-5 melanoma
# [11] = test system: NCI-H522 lung
# [12] = test system: SK-OV-3 ovarian
# [13] = test system: UO-31 renal
# [14] = test system: COLO 205 colon
# [15] = test system: RXF 393 renal
# [16] = test system: UACC-62 melanoma
# [17] = test system: SN12C renal
# [18] = test system: UACC-257 melanoma
# [19] = test system: RPMI-8226 leukemia
# [20] = test system: HOP-92 NSCLC
# [21] = test system: NCI-H460 lung
# [22] = test system: SNB-75 CNS
# [23] = test system: OVCAR-3 ovarian
# [24] = test system: K-562 leukemia
# [25] = test system: A549 NSCLC
# [26] = test system: HCC-2998 colon
# [27] = test system: OVCAR-5 ovarian
# [28] = test system: HCT-15 colon
# [29] = test system: SF-539 CNS
smiles,measurement,setting,value
CN(C)CCCOc1c2ccc(Cl)cc2nc2c1oc1ccc(Cl)cc12,GI50,[1],5.09 µM
same,TGI,[1],9.67 µM
same,GI50,[2],3.23 µM
same,TGI,[2],12.9 µM
same,GI50,[3],1.24 µM
same,TGI,[3],4.9 µM
same,GI50,[4],2.17 µM
same,TGI,[4],6.39 µM
same,GI50,[5],1.98 µM
same,TGI,[5],9.43 µM
same,GI50,[6],2.95 µM
same,TGI,[6],15.7 µM
same,GI50,[7],1.99 µM
same,TGI,[7],8.13 µM
same,GI50,[8],3.72 µM
same,TGI,[8],17.7 µM
same,GI50,[9],0.857 µM
same,TGI,[9],3.56 µM
same,GI50,[10],4.48 µM
same,TGI,[10],8.96 µM
same,GI50,[11],4.33 µM
same,TGI,[11],23.5 µM
same,GI50,[12],3.79 µM
same,TGI,[12],15 µM
same,GI50,[13],1.35 µM
same,TGI,[13],11.7 µM
same,GI50,[14],1.33 µM
same,TGI,[14],7.87 µM
same,GI50,[15],1.8 µM
same,TGI,[15],4.88 µM
same,GI50,[16],4.85 µM
same,TGI,[16],10.1 µM
same,GI50,[17],1.46 µM
same,TGI,[17],5.55 µM
same,GI50,[18],3.71 µM
same,TGI,[18],9.21 µM
same,GI50,[19],1.97 µM
same,GI50,[20],1.08 µM
same,TGI,[20],12.9 µM
same,GI50,[21],1.08 µM
same,TGI,[21],3.92 µM
same,GI50,[22],1.41 µM
same,TGI,[22],6.65 µM
same,GI50,[23],2.43 µM
same,TGI,[23],7.57 µM
same,GI50,[24],1.05 µM
same,TGI,[24],5.07 µM
same,GI50,[25],2.73 µM
same,TGI,[25],11.8 µM
same,GI50,[26],4.18 µM
same,TGI,[26],15.5 µM
same,GI50,[27],2.46 µM
same,TGI,[27],6.76 µM
same,GI50,[28],1.35 µM
same,TGI,[28],5.41 µM
same,GI50,[29],3.37 µM
same,TGI,[29],13.8 µM
